Results reported in ChEMBL document CHEMBL4715867, “Amycolasporins and Dibenzoyls from Lichen-Associated Amycolatopsis hippodromi and Their Antibacterial and Anti-inflammatory Activities” (J Nat Prod, 2020).
Converted amounts (≈) assume the structure as drawn. The source made the active and inactive calls. No cut-off for these calls is given here.

Columns and labels:
RAW264.7 [1] = assay: Inhibition of LPS-induced NO production in mouse RAW264.7 cells preincubated for 2 hrs followed by LPS-stimulation and measured after 24 hrs by Griess reagent based assay; assay type: functional, cell-based; settings: dose 3.3-33 µM, time 26.0 hrs
Candida albicans = assay: Antifungal activity against Candida albicans MYA-2867 at 100 ug/ml after 48 hrs by microbroth dilution method; assay type: functional, organism-based; settings: dose 100.0 µg/ml
Candida parapsilosis = assay: Antifungal activity against Candida parapsilosis ATCC 22019 at 100 ug/ml after 48 hrs by microbroth dilution method; assay type: functional, organism-based; settings: dose 100.0 µg/ml
Escherichia coli = assay: Antibacterial activity against Escherichia coli ATCC 25922 after 24 hrs by microbroth dilution method; assay type: functional
Bacillus subtilis = assay: Antibacterial activity against Bacillus subtilis ATCC 6633 after 24 hrs by microbroth dilution method; assay type: functional
Cryptococcus neoformans = assay: Antifungal activity against Cryptococcus neoformans ATCC 208821 at 100 ug/ml after 72 hrs by microbroth dilution method; assay type: functional, organism-based; settings: dose 100.0 µg/ml
Staphylococcus aureus = assay: Antibacterial activity against Staphylococcus aureus ATCC 25923 after 24 hrs by microbroth dilution method; assay type: functional
RAW264.7 [2] = assay: Inhibition of LPS-induced NO production in mouse RAW264.7 cells assessed as reduction in iNOS protein expression preincubated for 2 hrs followed by LPS-stimulation and measured after 24 hrs by Western blot analysis; assay type: functional, cell-based; settings: dose 3.3-33 µM, time 26.0 hrs

Compound	inhibition (RAW264.7 [1])	Activity (Candida albicans)	Activity (Candida parapsilosis)	MIC (Escherichia coli) [µg/mL]	MIC (Bacillus subtilis) [µg/mL]	Activity (Cryptococcus neoformans)	MIC (Staphylococcus aureus) [µg/mL]	inhibition (RAW264.7 [2])
COC(=O)[C@]1(O)C=Cc2cnc(C(N)=O)cc21	Dose-dependent effect	inactive	inactive	25 (≈ 107 µM)	25 (≈ 107 µM)	inactive	25 (≈ 107 µM)	Dose-dependent effect
CO[C@@H]1CC(=O)c2cc(C(N)=O)ncc21		inactive	inactive	25 (≈ 121 µM)	25 (≈ 121 µM)	inactive	25 (≈ 121 µM)	
NC(=O)c1cc2c(cn1)CCC2=O		inactive	inactive	25 (≈ 142 µM)	25 (≈ 142 µM)	inactive	25 (≈ 142 µM)	
COc1ccc(C(=O)Cc2ccc(O)cc2)c(O)c1	Dose-dependent effect							Dose-dependent effect
